The results in this text go back to patent publication US10421718B2, “EBNA1 inhibitors and their method of use” (priority 2013, dated 2019).

Each structure is given as a SMILES string. Where a name gives a salt, the structure may show the parent alone.

The target in this experiment is T1, His-EBNA1 (DNA binding domain of EBNA1, amino acids 459-607) (Epstein-Barr virus, UniProt P03211).
T1 construct: made in house; host or cells: E. coli
T1 sequence (P03211 459-607): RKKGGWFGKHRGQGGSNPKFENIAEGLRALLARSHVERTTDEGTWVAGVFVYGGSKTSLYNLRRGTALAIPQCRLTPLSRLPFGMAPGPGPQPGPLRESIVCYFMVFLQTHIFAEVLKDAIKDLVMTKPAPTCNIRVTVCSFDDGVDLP
The experiment can be described thus: Inhibition of 5′-biotin-oPL4624 binding to His-EBNA1 using Alpha Screen technology. The settings on record: Alpha Screen Activity (IC50, inhibition of 5′-biotin-oPL4624 binding to His-EBNA1), 15 nM His-EBNA1, 0.2 nM bt-oPL4624, 2 hr room temperature. On the procedure: Inhibition of 5′-biotin-oPL4624 binding to His-EBNA1 using Alpha Screen technology: Assays were performed using the DNA binding domain of EBNA1 (amino acids 459-607), which was His-tagged (His-EBNA1) and the self-complementary biotinylated (bt) oligonucleotide with the sequence 5′-bt-[…]-ATGCTACCC-3′ (bt-oPL4624). The protein was expressed in E. coli and purified according to Barwell, et al. (Barwell J A, Bochkarev A, Pfuetzner R A, Tong H, Yang D S, Frappier L, Edwards A M. (1995) Overexpression, purification, and crystallization of the DNA binding and dimerization domains of the Epstein-Barr virus nuclear antigen 1. J Biol Chem. 270: 20556-9.). The bt-oPL4624 oligonucleotide was purchased from Integrated DNA Technologies, Inc (IDT). AlphaScreen donor, acceptor beads and white, opaque 384-well assay plates were purchased from PerkinElmer, Inc.
Assays contained 15 nM His-EBNA1, 0.2 nM bt-oPL4624, 5 μg/mL AlphaScreen streptavidin donor beads and nickel chelate acceptor beads, and a series of concentrations of test compound ranging from 3.2 nM to 100 μM in a total volume of 40 μL assay buffer (25 mM Tris, pH 7.2, 160 mM NaCl, 1 mM MgCl2). His-EBNA1 (30 nM) and bt-oPL4624 (0.4 nM) were preincubated with 10 μg/mL nickel chelate AlphaScreen acceptor bead, or 10 μg/mL streptavidin AlphaScreen donor bead, respectively, for 30 minutes at room temperature in assay buffer. Twenty microliters of His-EBNA1/acceptor bead mix and bt-oPL4624/donor bead mix were transferred to assay plates containing […] of 1:3 serial dilutions of test compounds previously prepared in DMSO at concentrations ranging from 0.32 μM to 10 mM. Nonspecific binding was determined with 5 μg/mL AlphaScreen acceptor bead in the absence of His-EBNA1. After 2 hr incubation at room temperature, the AlphaScreen signal was measured on the Envision plate reader (PerkinElmer, Inc.) at 680 nm excitation and 570 nm emission. Inhibition values at each concentration of test compound were determined by setting 100% equal to raw data values in the absence of EBNA1 and 0% equal to the raw data values in the presence of EBNA1. Nonlinear regression fits of the inhibition values to a one-site dose-response equation were performed using GraphPad Prism.
For `O=C(O)c1cc(Cl)cc(C#Cc2ccc(F)cc2)c1-n1cccc1` [Entry 58, 5-chloro-3-[2-(4-fluorophenyl)ethynyl]-2-(1H-pyrrol-1-yl)benzoic acid], the IC50 lay within 10 to 100 µM.
In the case of `O=C(O)c1cc(Cl)cc(C#Cc2ccccc2)c1-n1cccc1` [Entry 59, 5-chloro-3-(2-phenylethynyl)-2-(1H-pyrrol-1-yl)benzoic acid] it was 10 to 100 µM.
As for `O=C(O)c1cc(F)cc(C#Cc2ccc(F)cc2)c1-n1cccc1` [Entry 60, 5-fluoro-3-[2-(4-fluorophenyl)ethynyl]-2-(1H-pyrrol-1-yl)benzoic acid], the figure is 100 to 1000 µM.
In the case of `O=C(O)c1cc(F)cc(C#Cc2ccccc2)c1-n1cccc1` [Entry 61, 5-fluoro-3-(2-phenylethynyl)-2-(1H-pyrrol-1-yl)benzoic acid] it was 10 to 100 µM; in that of `O=C(O)c1cccc(C#CC2CC2)c1-n1cccc1` [Entry 62, 3-(2-cyclopropylethynyl)-2-(1H-pyrrol-1-yl)benzoic acid], under 1 µM; in that of `CC(C)(O)C#Cc1cccc(C(=O)O)c1-n1cccc1` [Entry 63, 3-(3-hydroxy-3-methylbut-1-yn-1-yl)-2-(1H-pyrrol-1-yl)benzoic acid], under 1 µM.
With `CN(C)CC#Cc1cccc(C(=O)O)c1-n1cccc1` [Entry 64, 3-[3-(dimethylamino)prop-1-yn-1-yl]-2-(1H-pyrrol-1-yl)benzoic acid], the IC50 was in the range of 100 to 1000 µM.
As for `O=C(O)c1cccc(C#CCCc2ccccc2)c1-n1cccc1` [Entry 65, 3-(4-phenylbut-1-yn-1-yl)-2-(1H-pyrrol-1-yl)benzoic acid], the figure is under 1 µM.
`O=C(O)c1cccc(C#CCCCO)c1-n1cccc1` [Entry 66, 3-(5-hydroxypent-1-yn-1-yl)-2-(1H-pyrrol-1-yl)benzoic acid] gave an IC50 of under 1 µM.
In the case of `COc1ccc(C#Cc2cccc(C(=O)O)c2-n2cccc2)cc1` [Entry 67, 3-[2-(4-methoxyphenyl)ethynyl]-2-(1H-pyrrol-1-yl)benzoic acid] it was 1 to 10 µM.
The molecule `O=C(O)c1cccc(C#Cc2ccncc2)c1-n1cccc1` [Entry 68, 3-[2-(pyridin-4-yl)ethynyl]-2-(1H-pyrrol-1-yl)benzoic acid] displayed an IC50 of under 1 µM.
In the case of `O=C(O)c1cccc(C#Cc2cccnc2)c1-n1cccc1` [Entry 69, 3-[2-(pyridin-3-yl)ethynyl]-2-(1H-pyrrol-1-yl)benzoic acid] it was 10 to 100 µM; in that of `COc1cccc(C#Cc2cccc(C(=O)O)c2-n2cccc2)c1` [Entry 70, 3-[2-(3-methoxyphenyl)ethynyl]-2-(1H-pyrrol-1-yl)benzoic acid], 1 to 10 µM.
In the case of `O=C(O)c1cccc(C#Cc2ccc(F)cc2)c1-n1cccc1` [Entry 71, 3-[2-(4-fluorophenyl)ethynyl]-2-(1H-pyrrol-1-yl)benzoic acid] it was 1 to 10 µM; in that of `O=C(O)c1cccc(C#Cc2ccccc2)c1-n1cccc1` [Entry 72, 3-(2-phenylethynyl)-2-(1H-pyrrol-1-yl)benzoic acid], under 1 µM; in that of `CN(CC#Cc1cccc(C(=O)O)c1-n1cccc1)Cc1ccccc1` [Entry 73, 3-{3-[benzyl(methyl)amino]prop-1-yn-1-yl}-2-(1H-pyrrol-1-yl)benzoic acid], under 1 µM.
In turn, `O=C(O)c1cccc(C#CCn2ccnc2)c1-n1cccc1` [Entry 74, 3-[3-(1H-imidazol-1-yl)prop-1-yn-1-yl]-2-(1H-pyrrol-1-yl)benzoic acid] displayed an IC50 of under 1 µM.
As to `O=C(O)c1cccc(C#Cc2cscn2)c1` [Entry 75, 3-[2-(1,3-thiazol-4-yl)ethynyl]benzoic acid], the IC50 was 10 to 100 µM.
As for `O=C(O)c1cccc(C#Cc2c[nH]c3ncccc23)c1` [Entry 76, 3-(2-{1H-pyrrolo[2,3-b]pyridin-3-yl}ethynyl)benzoic acid], the IC50 fell in the range of 10 to 100 µM.
In turn, `O=C(O)c1cccc(C#Cc2ccc3[nH]ccc3c2)c1` [Entry 77, 3-[2-(1H-indol-5-yl)ethynyl]benzoic acid] came in with an IC50 of under 1 µM.
As for `Nc1c(C#Cc2c[nH]c3ncccc23)cccc1C(=O)O` [Entry 78], the figure is under 1 µM; as for `Nc1c(C#Cc2cccc3[nH]ccc23)cccc1C(=O)O` [Entry 79, 2-amino-3-[2-(1H-indol-4-yl)ethynyl]benzoic acid], under 1 µM; as for `Nc1c(C#Cc2ccc3cc[nH]c3c2)cccc1C(=O)O` [Entry 80, 2-amino-3-[2-(1H-indol-6-yl)ethynyl]benzoic acid], under 1 µM.
As for `Nc1c(C#Cc2ccc3[nH]ccc3c2)cccc1C(=O)O` [Entry 81], the figure is under 1 µM; as for `Nc1c(C#Cc2cccc(CO)c2)cccc1C(=O)O` [Entry 82, 2-amino-3-{2-[3-(hydroxymethyl)phenyl]ethynyl}benzoic acid], 1 to 10 µM; as for `Nc1c(C#Cc2cccc(O)c2)cccc1C(=O)O` [Entry 83], 1 to 10 µM.
Molecule `Nc1c(C#Cc2ccccc2)cccc1C(=O)O` [Entry 84] came in with an IC50 of 10 to 100 µM.
In the case of `O=C(O)c1cccc(C#Cc2ccccc2)c1F` [Entry 85, 2-fluoro-3-(2-phenylethynyl)benzoic acid] it was 1 to 10 µM; in that of `O=C(O)c1cccc(C#Cc2c[nH]c3ncccc23)c1F` [Entry 86, 2-fluoro-3-(2-{1H-pyrrolo[2,3-b]pyridin-3-yl}ethynyl)benzoic acid], 10 to 100 µM; in that of `O=C(O)c1cccc(C#Cc2cnc3cnccn23)c1F` [Entry 87, 2-fluoro-3-(2-{imidazo[1,2-a]pyrazin-3-yl}ethynyl)benzoic acid], under 1 µM.
In the case of `O=C(O)c1cccc(C#Cc2ccccc2CO)c1F` [Entry 88, 2-fluoro-3-{2-[2-(hydroxymethyl)phenyl]ethynyl}benzoic acid] it was 1 to 10 µM.
`O=C(O)c1cccc(C#Cc2cscn2)c1F` [Entry 89] registered an IC50 of 1 to 10 µM.
On to `O=C(O)c1cccc(C#Cc2ccccn2)c1` [Entry 90, 3-[2-(pyridin-2-yl)ethynyl]benzoic acid], for which the IC50 fell in the range of 100 to 1000 µM.
In the case of `O=C(O)c1cccc(C#Cc2cccnc2)c1` [Entry 91, 3-[2-(pyridin-3-yl)ethynyl]benzoic acid] it was 1 to 10 µM; in that of `O=C(O)c1cccc(C#Cc2ccccc2)c1` [Entry 92, 3-(2-phenylethynyl)benzoic acid], 10 to 100 µM.
Molecule `O=C(O)c1cccc(C#Cc2ccncc2)c1` [Entry 93, 3-[2-(pyridin-4-yl)ethynyl]benzoic acid] registered an IC50 of 1 to 10 µM.
The molecule `COc1ccc(C#Cc2cccc(C(=O)O)c2)cc1` [Entry 94, 3-[2-(4-methoxyphenyl)ethynyl]benzoic acid] registered a half-maximal inhibitory concentration (IC50) of 100 to 1000 µM.
In the case of `CN(C)Cc1ccc(-c2c(C#Cc3ccccc3)cccc2C(=O)O)cc1` [Entry 95, 2-{4-[(dimethylamino)methyl]phenyl}-3-(2-phenylethynyl)benzoic acid trifluoroacetic acid salt] it was 1 to 10 µM; in that of `O=C(O)c1cccc(C#Cc2ccccc2)c1C1=CCNCC1` [Entry 96, 3-(2-phenylethynyl)-2-(1,2,3,6-tetrahydropyridin-4-yl)benzoic acid trifluoroacetic acid salt], 1 to 10 µM; in that of `O=C(O)c1cccc(C#Cc2ccccc2)c1-c1ccncc1` [Entry 97, 3-(2-phenylethynyl)-2-(pyridin-4-yl)benzoic acid trifluoroacetic acid salt], 10 to 100 µM.
`CS(=O)(=O)c1ccc(-c2c(C#Cc3ccccc3)cccc2C(=O)O)cc1` [Entry 98, 2-(4-methanesulfonylphenyl)-3-(2-phenylethynyl)benzoic acid] yielded an IC50 of 10 to 100 µM.
`O=C(O)c1cccc(C#Cc2ccccc2)c1-c1cn[nH]c1` [Entry 99, 3-(2-phenylethynyl)-2-(1H-pyrazol-4-yl)benzoic acid] displayed an IC50 of 1 to 10 µM.
Molecule `O=C(O)c1cccc(C#Cc2ccccc2)c1-c1cncnc1` [Entry 100, 3-(2-phenylethynyl)-2-(pyrimidin-5-yl)benzoic acid] yielded an IC50 of 100 to 1000 µM.
`Cn1cc(-c2c(C#Cc3ccccc3)cccc2C(=O)O)cn1` [Entry 101, 2-(1-methyl-1H-pyrazol-4-yl)-3-(2-phenylethynyl)benzoic acid]: the IC50 is 1 to 10 µM.
In the case of `O=C(O)c1cccc(C#Cc2ccccc2)c1N1CCCC1c1ccccc1` (stereo not drawn) [Entry 102, 3-(2-phenylethynyl)-2-(2-phenylpyrrolidin-1-yl)benzoic acid] it was 1 to 10 µM.
